These results are taken from US20210330736A1 (UNIVERSITEIT VAN AMSTERDAM, priority 2018, published 2021).

Assay [1] concerns Ser40 phosphorylation of Th in HEK cells transfected with Th. Description: Th Ser40 phosphorylation in HEK cells transfected with Th (western blot). The assay is classed as cell-based. To be noted: HEK-293 transfected with Th, low concentrations (1 μM). The method, then:
FIG. 3. HEK cells are a suitable model to study GUCY2C-induced Ser40 phosphorylation. (A) RT-qPCR data from intact HEK extracts. Input material was 10 ng of total RNA. Cp corresponds to the cycle number in which the expression starts to be considered positive. (−) represents the water control, which is negative in every case. (B) HEK cultures were transfected with Th and treated with a cGMP analogue 48 hours post-plating. Changes in Ser40 phosphorylation were studied. The graph represents the statistical analysis (n=6; Mean±SEM). Unpaired Student's t-test (p-value: ****<0.0001). Hereon, ‘Fold Change’ corresponds to the ratio P-Ser40/Total Th.
FIG. 7. PDE2a is an important effector regulating Ser40 phosphorylation in MN9D cells. BAY-60-7550 dose-curve and representative examples in MN9D (n=9, red) and HEK cells (n=4, blue) (Mean±SEM). Cells were treated with various concentrations of BAY 60-7750 and analyzed for Th phosphorylation on Ser40 , total Th and actin.
HEK cells were maintained in 100-mm Petri dishes and grown in DMEM medium supplemented with L-glutamine, penicillin-streptomycin (Pen&Strep) and 10% heat-inactivated fetal bovine serum (HIFBS). Growing conditions were 37° C. and 5% CO2. For every-other-day passages, HEK cultures were split at a 1:3 dilution. From Friday to Monday, the split proportion was doubled for all cell lines. For passaging, cultures were rinsed with PBS and incubated with 1 mL of trypsin during 5 minutes. Cells were resuspended in growth medium and finally split to the proper dilution. The experiments were performed in 12-well plates. For immunocytochemistry analysis, sterile 18-mm coverslips were added prior to the plating. 500 !μL of cell resuspension was seeded in each well. If experiments were to be performed 48 hours after the plate preparation, 1:5 was the seeding ratio for HEK cells. When the experiments took place 96 hours post-plating, 1:7 was the working dilution for HEK cells. Unless otherwise stated, HEK cultures were processed 96 hours post-plating.
HEK cells were transfected using the calcium-phosphate method. […]
(In general: In western blotting, separated proteins are transferred to a membrane and probed.)

In a further assay the target is T1, GUCY2C R792S mutant (Homo sapiens, UniProt P25092, R792S).
T1 construct: expressed in transfected cells; host or cells: HEK cells, co-transfected with Th
Description: Th Ser40 phosphorylation in HEK cells co-transfected with Th and GUCY2C R792S gain-of-function mutant versus wt. Format: cell-based. To be noted: HEK co-transfected with Th and wt or R792S GUCY2C, guanylin treatment. The method, then:
FIG. 5. […] (A) HEK cultures were treated with guanylin, in the presence or absence of IBMX. […] Unpaired Student's t-test (p-values: ****<0.0001, **<0.01, *<0.05). (B) HEK cells were co-transfected with Th and either the wt GUCY2C or a gain-of-function mutant (R792S). Ser40 phosphorylation was studied following guanylin treatment (G). […] Unpaired Student's t-test (p-values: ***<0.001, **<0.01).
HEK cells were transfected using the calcium-phosphate method. 12-well plates were refreshed with 500 μL of growth medium before transfection. […] The plasmid mixture was taken into a final concentration of 250 mM CaCl2 in a total volume of 110 μL. A complementary tube was filled with 110 μL of HEPES-buffered saline 2X (HEBS 2X: 1.5 mM Na2HPO4, 50 mM HEPES pH 7.05, 280 mM NaCl). The tube with CaCl2 was pipetted drop-wise into the HEBS and mixed gently. After 60 seconds of incubation, 55 µL of the final mixture was added to each well. […]
Up to 35 μL of sample was loaded in each slot and run in the presence of tris-glycine buffer and 0.1% SDS. […] After additional washings during 1 hour, blots were exposed to an enhanced chemiluminescence solution and the signal was detected using an Odyssey imager (LI-COR). […] For graph quantifications, ‘Fold Change’ represents the ratio P-Ser40/Total Th. Statistical comparisons between pair of groups correspond to unpaired Student's t-tests, as calculated with GraphPad Prism. […]

T1 sequence (P25092 24-1073 R792S): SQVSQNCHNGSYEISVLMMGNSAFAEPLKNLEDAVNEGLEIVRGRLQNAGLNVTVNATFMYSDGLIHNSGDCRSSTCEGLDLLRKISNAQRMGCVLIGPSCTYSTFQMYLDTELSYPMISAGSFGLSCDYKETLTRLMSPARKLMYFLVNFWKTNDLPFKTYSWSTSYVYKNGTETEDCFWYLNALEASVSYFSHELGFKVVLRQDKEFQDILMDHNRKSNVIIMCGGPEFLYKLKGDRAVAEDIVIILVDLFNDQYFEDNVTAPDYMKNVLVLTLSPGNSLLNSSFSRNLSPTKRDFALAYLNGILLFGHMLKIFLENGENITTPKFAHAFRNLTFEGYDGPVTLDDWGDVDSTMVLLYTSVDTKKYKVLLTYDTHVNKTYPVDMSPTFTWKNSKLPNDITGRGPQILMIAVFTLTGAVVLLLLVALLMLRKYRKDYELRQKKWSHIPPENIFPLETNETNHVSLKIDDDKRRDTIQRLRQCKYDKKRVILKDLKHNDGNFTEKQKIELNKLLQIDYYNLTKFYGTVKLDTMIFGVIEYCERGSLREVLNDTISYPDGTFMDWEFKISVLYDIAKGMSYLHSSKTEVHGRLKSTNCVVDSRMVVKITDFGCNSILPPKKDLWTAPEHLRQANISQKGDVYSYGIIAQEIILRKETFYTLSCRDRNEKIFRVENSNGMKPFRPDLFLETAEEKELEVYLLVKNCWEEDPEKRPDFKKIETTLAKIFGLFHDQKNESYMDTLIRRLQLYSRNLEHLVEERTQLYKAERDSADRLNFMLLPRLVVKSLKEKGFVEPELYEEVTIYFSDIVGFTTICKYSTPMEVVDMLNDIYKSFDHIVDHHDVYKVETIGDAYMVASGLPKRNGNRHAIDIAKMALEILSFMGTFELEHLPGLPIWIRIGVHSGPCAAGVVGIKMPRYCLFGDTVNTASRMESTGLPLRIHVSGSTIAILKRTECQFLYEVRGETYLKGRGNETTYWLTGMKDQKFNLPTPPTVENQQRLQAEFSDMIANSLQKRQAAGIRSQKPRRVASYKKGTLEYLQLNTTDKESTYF

Regarding `COc1ccc(Cc2nn3c([C@@H](CCCc4ccccc4)[C@@H](C)O)nc(C)c3c(=O)[nH]2)cc1OC` [BAY 60-7550], the “effect on Ser40 phosphorylation in HEK cells” value in assay [1] is “hardly exhibit any effect”; in assay [1] (listed as BAY 60-7750), “almost no effect”.
Turning to “guanylin: natural agonistic ligand of GUCY2C, 15 amino acid polypeptide; commercially available rat/mouse guanylin (Chemcruz) (PNTCEICAYAACTGC) [reference compound]”, the “boost in Ser40 phosphorylation with R792S mutant compared to the wt receptor” value in the assay with GUCY2C R792S mutant was determined as 1.5 fold.
